This assay deals with T1, Polyphenol oxidase 1 [61-568] (Agaricus bisporus, UniProt Q00024).
T1 construct: 61-568
T1 sequence (Q00024 whole entry): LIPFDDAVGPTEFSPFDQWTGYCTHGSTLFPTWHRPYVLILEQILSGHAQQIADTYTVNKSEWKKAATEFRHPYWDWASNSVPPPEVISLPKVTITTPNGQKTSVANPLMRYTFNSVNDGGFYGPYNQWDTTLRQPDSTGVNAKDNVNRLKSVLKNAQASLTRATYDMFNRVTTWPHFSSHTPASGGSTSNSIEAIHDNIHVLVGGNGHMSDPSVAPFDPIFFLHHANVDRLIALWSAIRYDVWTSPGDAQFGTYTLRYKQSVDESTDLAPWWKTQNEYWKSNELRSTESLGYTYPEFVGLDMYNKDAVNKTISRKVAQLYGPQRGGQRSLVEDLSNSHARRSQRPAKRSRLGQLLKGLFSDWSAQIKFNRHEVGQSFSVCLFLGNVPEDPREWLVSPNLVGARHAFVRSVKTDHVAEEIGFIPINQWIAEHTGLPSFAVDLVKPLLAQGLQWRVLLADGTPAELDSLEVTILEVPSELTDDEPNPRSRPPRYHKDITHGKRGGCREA
The assay is described as follows: Tyrosinase Activity Assay. The following applies: pH 6.8. As to the method: Briefly, 1,3,4-thiadiazole derivatives were tested for diphenolase inhibitory activity of tyrosinase using L-DOPA (dihydroxyphenylalanine) as substrate. All the compounds were dissolved in DMSO and its final concentration in the reaction mixture was 2.0%. Thirty units of mushroom tyrosinase (0.5 mg/ml) were first pre-incubated with the compounds, in 50 mM phosphate buffer (pH 6.8), for 10 min at 25 °C. Then the L-DOPA (0.5 mM) was added to the reaction mixture and the enzyme reaction was continuously monitored by measuring the change in absorbance at 475 nm of formation of the DOPA chrome for 1 min.
As to `COc1cc(OC)c(C=Nc2nnc(S)s2)c(OC)c1` [2-((2,4,6-Trimethoxybenzylidene)amino)-5-mercapto-1,3,4-thiadiazole (16)], it took 0.907 µM to reach half-maximal inhibition (IC50). That is a sub-micromolar value.

On to `Fc1ccccc1C=Nc1nnc(S)s1` [2-((2-Fluorobenzylidene)amino)-5-mercapto-1,3,4-thiadiazole (2)], for which the midpoint of inhibition, the IC50, lay at 0.765 µM.

Regarding `COc1ccccc1C=Nc1nnc(S)s1` [2-((2-Methoxybenzylidene)amino)-5-mercapto-1,3,4-thiadiazole (10)], the IC50 (in general, the point on the concentration scale where inhibition reaches its midpoint) amounted to 0.733 µM.

For `O=[N+]([O-])c1ccccc1C=Nc1nnc(S)s1` [2-((2-Nitrobenzylidene)amino)-5-mercapto-1,3,4-thiadiazole (9)], the IC50 is 0.671 µM.

Regarding `Sc1nnc(N=Cc2ccc(Cl)c(Cl)c2)s1` [2-((3,4-Dichlorobenzylidene)amino)-5-mercapto-1,3,4-thiadiazole (5)], the IC50 came to 3.62 µM. This IC50 is about 5.4-fold higher than that of the molecule before.

Molecule `COc1cc(C=Nc2nnc(S)s2)cc(OC)c1` [2-((3,5-Dimethoxybenzylidene)amino)-5-mercapto-1,3,4-thiadiazole (11)] registered an IC50 of 5.35 µM.

For the molecule `Sc1nnc(N=Cc2cccc(Cl)c2)s1` [2-((3-Chlorobenzylidene)amino)-5-mercapto-1,3,4-thiadiazole (3)], the IC50 is 4.75 µM. The IC50 values of the last two molecules are within 1.5-fold of each other.

In the case of `CC(C)(C)c1ccc(C=Nc2nnc(S)s2)cc1` [2-((4-(Tert-butyl)benzylidene)amino)-5-mercapto-1,3,4-thiadiazole (8)], the midpoint of inhibition, the IC50, lay at 1.39 µM.

For `Sc1nnc(N=Cc2ccc(Cl)cc2)s1` [2-((4-Chlorobenzylidene)amino)-5-mercapto-1,3,4-thiadiazole (4)], the IC50 is 2.46 µM.

In turn, `Oc1ccc(Cl)cc1C=Nc1nnc(SCc2ccccc2)s1` [2-(((5-(Benzylthio)-1,3,4-thiadiazol-2-yl)imino)methyl)-4-chlorophenol (17)] gave an IC50 of 247 µM.

`Oc1ccccc1C=Nc1nnc(S)s1` [2-(((5-Mercapto-1,3,4-thiadiazol-2-yl)imino)methyl)phenol (12)] gave an IC50 of 0.785 µM.

With `Sc1nnc(N=Cc2ccccc2)s1` [2-(Benzylideneamino)-5-mercapto-1,3,4-thiadiazole (1)], half-maximal inhibition (IC50) required 49.2 µM. This IC50 is about 63-fold higher than that of the molecule before.

Molecule `COc1cc(C=Nc2nnc(S)s2)cc(OC)c1O` [4-(((5-Mercapto-1,3,4-thiadiazol-2-yl)imino)methyl)-2,6-dimethoxyphenol (15)] yielded an IC50 of 0.473 µM.

Turning to `COc1cc(C=Nc2nnc(S)s2)ccc1O` [4-(((5-Mercapto-1,3,4-thiadiazol-2-yl)imino)methyl)-2-methoxyphenol (14)], the IC50 was determined as 0.036 µM.

As to `Oc1ccc(C=Nc2nnc(S)s2)c(O)c1` [4-(((5-Mercapto-1,3,4-thiadiazol-2-yl)imino)methyl)benzene-1,3-diol (13)], inhibition was half-maximal at 0.255 µM (IC50).

In turn, `Oc1ccc(Br)cc1C=Nc1nnc(S)s1` [4-Bromo-2-(((5-mercapto-1,3,4-thiadiazol-2-yl)imino)methyl)phenol (7)] gave an IC50 of 1.97 µM. This IC50 is about 7.7-fold higher than that of the molecule before.

Consider `Oc1ccc(Cl)cc1C=Nc1nnc(S)s1` [4-Chloro-2-(((5-mercapto-1,3,4-thiadiazol-2-yl)imino)methyl)phenol (6)], for which half-maximal inhibition (IC50) was put at 1.72 µM.

The values above are taken from BindingDB's records for doi:10.1016/j.bioorg.2016.09.007 (Shaoyang University, 2016).
